“Also recorded” adds a separate entry of the source. Each block holds one molecule with its values, some of them ahead of it. Where no end group is shown, it is not given here. [ ]: non-standard residue; d: D form. pS = N[C@@H](COP(=O)(O)O)C(=O)O
Key:
[1] = Circular dichroism, secondary structure of peptide alone in solution; assay type: physicochemical; conditions: CD, TMEM97 (108-176) alone, pH 7.4, 0.05% DDM, room temperature, DichroWeb
HSC70 = conditions: cited from earlier work
HCE cells = test: Hst1 localization by immunofluorescence after DTG pretreatment; assay type: cell-based, human; conditions: pretreatment with escalating concentrations of DTG (Fig. S4)
full-length TMEM97 = full-length TMEM97 (Homo sapiens, UniProt Q5BJF2); test: SPR, recombinant full-length TMEM97; assay type: binding; conditions: Biacore 8K, pH 7.4, 25 °C
GST-TMEM97 (108-176) = GST-TMEM97 (108-176) (Homo sapiens, UniProt Q5BJF2); test: SPR, recombinant GST-TMEM97; assay type: binding; conditions: Biacore 8K, pH 7.4, 25 °C
[2] = target: synthetic TMEM97 (108-176) (Homo sapiens, UniProt Q5BJF2); test: SPR, synthetic TMEM97; assay type: binding; conditions: Biacore 8K, pH 7.4, 25 °C
TMEM97 (108-176) = test: Circular dichroism, secondary structure on mixing with TMEM97; assay type: binding; conditions: CD, pH 7.4, 0.05% DDM, room temperature
[3] = target: TMEM97 (S2R) overexpressed in HEK293T cell membranes (UniProt Q5BJF2 1-176); test: radioligand binding
[4] = target: Recombinant full-length TMEM97 (Sigma-2 receptor) (UniProt Q5BJF2 1-176); test: SPR
[5] = target: Recombinant GST-TMEM97 (108-176) (UniProt Q5BJF2 108-176); test: SPR
[6] = target: T1, Synthetic TMEM97 (108-176); test: SPR
T1 peptide: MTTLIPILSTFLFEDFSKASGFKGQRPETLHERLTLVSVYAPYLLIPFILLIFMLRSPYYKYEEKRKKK

Sequence of full-length TMEM97 (Q5BJF2 whole entry): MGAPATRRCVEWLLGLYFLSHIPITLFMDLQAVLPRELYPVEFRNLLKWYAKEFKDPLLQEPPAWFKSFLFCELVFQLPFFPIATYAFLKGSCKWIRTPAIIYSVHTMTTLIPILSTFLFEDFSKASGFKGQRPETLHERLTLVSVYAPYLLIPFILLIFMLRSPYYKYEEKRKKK

Molecule: Hst3: histatin-3, histatin family peptide cited from Imamura et al. (DSHAKRHHGYKRKFHEKHHSHRGYRSNYLYDN; Histatin-3; UniProt P15516 20-51, looked up)
Interaction with HSC70 (HSC70): interact with, but not clearly directly bind

Molecule: Cc1ccccc1NC(=N)Nc1ccccc1C [DTG, 1,3-di-o-tolylguanidine]
Effect on Hst1 localization (HCE cells): Hst1 localization is reduced by pretreatment with DTG

Further lines, with some results ahead:

Turns content [1]: 14%
Unordered content [1]: 17%
β-strand content [1]: 23%
Molecule: MTTLIPILSTFLFEDFSKASGFKGQRPETLHERLTLVSVYAPYLLIPFILLIFMLRSPYYKYEEKRKKK [TMEM97 (108-176)]

Binding by SPR (in words) [2]: did not bind
Molecule: HYHKFHRYYDPGSNLYKEHNHGFHHGYKDEFRREpSRDS [Hst1SP]
Binding by SPR (in words) (full-length TMEM97): did not exhibit binding; also recorded: unable to bind
Binding by SPR (in words) (GST-TMEM97 (108-176)): did not exhibit binding; also recorded: unable to bind
Change of secondary structure on mixing with TMEM97 (108-176) (TMEM97 (108-176)): did not induce increased secondary structural features; also recorded: did not induce increased secondary structural elements

Ki [3]: 0.239 µM
Kd [4]: 5.3 µM
Kd [5]: 6.6 µM
Kd [6]: 6.3 µM
B1: Histatin-1 (Hst1) (peptide)
peptide: D[pS]HEKRHHGYRRKFHEKHHSHREFPFYGDYGSNYLYDN
